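Tested at 5 concentrations; 48 h exposure; 96-well plates; endpoints linearly interpolated, else capped at highest concentration. TGI: total growth inhibition.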 Where a SMILES comes first, the peptide text is derived from it. The star is where a group is joined. Cbz = O=C(OCc1ccccc1)*; Boc = CC(C)(C)OC(=O)*; tBu = CC(C)(C)*
Assays:
Assay in all cases: inhibition of tumour cell growth, NCI panel, 48 h
SNB-75 CNS = tested on: SNB-75 CNS
HOP-92 NSCLC = tested on: HOP-92 NSCLC
UACC-257 melanoma = tested on: UACC-257 melanoma
K-562 leukemia = tested on: K-562 leukemia
SF-295 CNS = tested on: SF-295 CNS
OVCAR-5 ovarian = tested on: OVCAR-5 ovarian
SR leukemia = tested on: SR leukemia
SN12C renal = tested on: SN12C renal
SK-MEL-2 melanoma = tested on: SK-MEL-2 melanoma
NCI-H460 lung = tested on: NCI-H460 lung
UACC-62 melanoma = tested on: UACC-62 melanoma
SF-539 CNS = tested on: SF-539 CNS
SK-MEL-28 melanoma = tested on: SK-MEL-28 melanoma
U251 CNS = tested on: U251 CNS
CAKI-1 renal = tested on: CAKI-1 renal

SMILES	TGI (SNB-75 CNS)	TGI (HOP-92 NSCLC)	TGI (UACC-257 melanoma)	TGI (K-562 leukemia)	TGI (SF-295 CNS)	TGI (OVCAR-5 ovarian)	TGI (SR leukemia)	TGI (SN12C renal)	TGI (SK-MEL-2 melanoma)	TGI (NCI-H460 lung)	TGI (UACC-62 melanoma)	TGI (SF-539 CNS)	TGI (SK-MEL-28 melanoma)	TGI (U251 CNS)	TGI (CAKI-1 renal)
O=c1[nH]nc(Cc2ccccc2)[nH]1	> 100 µM	> 100 µM	> 100 µM	> 100 µM	> 100 µM	> 100 µM	> 100 µM	> 100 µM	> 100 µM	> 100 µM	> 100 µM	> 100 µM	> 100 µM	> 100 µM	> 100 µM
COc1cc(/C=C2\N=C(c3ccccc3)N(c3nc4c(OC)ccc(OC)c4s3)C2=O)ccc1O	93.2 µM	> 100 µM	> 100 µM	42.4 µM	> 100 µM	> 100 µM	> 100 µM	> 100 µM	> 100 µM	> 100 µM	> 100 µM	> 100 µM	> 100 µM	> 100 µM	> 100 µM
O=C1CCCC2(c3ccccc3)Nc3ccccc3N12 (stereo not given)	> 100 µM	> 100 µM	> 100 µM	> 100 µM	> 100 µM	> 100 µM	> 100 µM	> 100 µM	> 100 µM	> 100 µM	> 100 µM	> 100 µM	> 100 µM	> 100 µM	> 100 µM
COc1ccccc1N1CCN(CCCN2/C(=C(\O)c3ccccc3)C(=O)c3c(C)cc(C)nc3S2(=O)=O)CC1	30.8 µM	98 µM	> 100 µM	> 100 µM	> 100 µM	> 100 µM	> 100 µM	> 100 µM	> 100 µM	> 100 µM	> 100 µM	> 100 µM	> 100 µM	> 100 µM	> 100 µM
Cc1ccc(C)c(COCCOCn2ccc(N)nc2=O)c1	> 100 µM	> 100 µM	> 100 µM	> 100 µM	> 100 µM	> 100 µM	> 100 µM	> 100 µM	> 100 µM	> 100 µM	> 100 µM	> 100 µM	> 100 µM	> 100 µM	> 100 µM
CC(=O)OC1(C)C=CC(=O)C=C1	> 100 µM	> 100 µM	34.4 µM	> 100 µM	> 100 µM	> 100 µM	> 100 µM	> 100 µM	98.4 µM	79.5 µM	35.7 µM	> 100 µM	69.6 µM	28.7 µM	> 100 µM
COc1ccc(N2C(=O)C3ON(C(C(N)=O)c4ccccc4)C(c4cc5ccccc5c5ccccc45)C3C2=O)cc1 (stereo not given)	> 50 µM	> 50 µM	> 50 µM	> 50 µM	> 50 µM	> 50 µM	> 50 µM	> 50 µM	> 50 µM	> 50 µM	> 50 µM	> 50 µM	> 50 µM	> 50 µM	18.5 µM
NC(N)=N/N=C/c1c(-c2cccc([N+](=O)[O-])c2)nc2n1CCS2	25.1 µM	39.7 µM	36.1 µM	> 100 µM	54.6 µM	> 100 µM	34.9 µM	58.5 µM	34 µM	53.5 µM	39 µM	43.7 µM	41.5 µM	41.7 µM	68.4 µM
O=C(Cc1ccccc1)N/N=C/c1ccccc1O	59.8 µM	54.8 µM	58 µM	> 100 µM	85.2 µM	> 100 µM	> 100 µM	> 100 µM	> 100 µM	57.1 µM	47.9 µM	> 100 µM	> 100 µM	> 100 µM	> 100 µM
CC1ON2CCCC2[C@H]1C(=O)N1C2CC3CCC2(CS1(=O)=O)C3(C)C (stereo not given in full)	> 100 µM	> 100 µM	> 100 µM	> 100 µM	> 100 µM	> 100 µM	> 100 µM	> 100 µM	> 100 µM	> 100 µM	> 100 µM	> 100 µM	> 100 µM	> 100 µM	> 100 µM
CC(OC(C)(C)C)C(NC(=O)C(CCCCNC(=O)OC(C)(C)C)NC(=O)C(Cc1c[nH]c2ccccc12)NC(=O)C(Cc1ccccc1)NC(=O)OCc1ccccc1)C(=O)NC(Cc1ccccc1)C(=O)O (stereo not given) (Cbz-FWK(Boc)T(tBu)F-OH; configuration not given here)	> 100 µM	> 100 µM	> 100 µM	> 100 µM	> 100 µM	> 100 µM	> 100 µM	62.6 µM	92.8 µM	> 100 µM	67.9 µM	59.9 µM	> 100 µM	> 100 µM	> 100 µM
NCCCCC(N)C(=O)NCCNc1ccc(NCCNC(=O)C(N)CCCCN)c2c1C(=O)c1ccccc1C2=O (stereo not given)	> 100 µM	> 100 µM	> 100 µM	> 100 µM	> 100 µM	> 100 µM	> 100 µM	99.1 µM	> 100 µM	> 100 µM	> 100 µM	> 100 µM	> 100 µM	> 100 µM	> 100 µM
O=C1NC2OCC(O)C(O)C2O1 (stereo not given)	> 100 µM	> 100 µM	> 100 µM	> 100 µM	> 100 µM	> 100 µM	> 100 µM	> 100 µM	> 100 µM	> 100 µM	> 100 µM	> 100 µM	> 100 µM	> 100 µM	> 100 µM
COC(=O)CCc1cc(O)c2c(c1)C(C(=O)OC)C(c1ccc(O)c(O)c1)O2 (stereo not given)	8.41 µM	> 100 µM	> 100 µM	10.6 µM	97 µM	> 100 µM	> 25.5 µM	> 88.7 µM	> 100 µM	> 62.8 µM	> 100 µM	32.9 µM	> 100 µM	> 95 µM	> 100 µM
CN(C)/C=N/S(=O)(=O)c1nn2c(C=O)c(-c3ccc(Cl)cc3)nc2s1	24.3 µM	7.17 µM	9.83 µM	3.04 µM	28.2 µM	5.55 µM	3.4 µM	5.94 µM	21.3 µM	22.4 µM	14.3 µM	5.21 µM	3.33 µM	11.7 µM	2.58 µM
